Reference: patent publication US20070225255A1, “Use of Mitochondrially Targeted Antioxidant in the Treatment of Liver Diseases and Epithelial Cancers” (priority 2004, published 2007)
pEC50: −log10 of the molar value.

How the values were obtained:
[1] = test system: patients having liver cirrhosis and a history of hepatitis C virus (HCV) infection; details: patients with liver cirrhosis and HCV history (VitE group); cited from earlier work
hepatoma cell lines = assay: DDC intoxication of hepatoma cell lines; type: cell-based; details: hepatoma cell lines incubated for up to 72 hours in DMEM and 10% FCS
Experimental: The hepatoma cell lines incubated for up to 72 hours in culture medium (DMEM and 10% FCS, Gibco) supplemented with DDC (EC50=50 μg/ml of medium) or with up to 100 μM BSO are another suitable in vitro model mimicking observations made in patients suffering from the diseases according to the invention.

[2] = fed to mice on a long term basis; cited from earlier work
[3] = intraperitoneal or i.v. (tail vein) injections, mice; cited from earlier work
[4] = fed in drinking water for 3 to 7 days, 500 μM or 1 mM (MitoVit E 500 μM); cited from earlier work
[5] = test system: mitochondria within isolated cells; details: in vitro; cited from earlier work
[6] = according to Jauslin M. L. et al., 2003, FASEB J.; cited from earlier work
[7] = test system: human cell lines intoxicated with DDC or BSO; assay: ROS formation in cell lines intoxicated with DDC or BSO; type: cell-based; details: simultaneous treatment at concentrations corresponding to EC50
Excerpt: Another simple set of experiments employing hepatoma cell lines (e.g. HepG2 or Hep3B), the SNU-398 hepatocellular carcinoma-derived cell line (ATCC No. CRL-2233, LGC Promochem, Germany), the HUH-7 human carcinoma-derived cell line (Japanese collection of Research Biosources JCRB 0403) or the Tib-73 mouse embryonic liver cell line (ATCC TIB 73=BNL CL2 derived from BAL/c mouse, MD, USA) allows measurement of ROS production in these cells upon DDC intoxication.
To determine ROS production in for example hepatoma cell lines a standard experimental protocol according to Example 8 is applied. Tested hepatoma cells are grown in 96-well plates in culture medium (DMEM supplemented with 10% FCS, Gibco) to 80% confluency, subsequently washed with HBSS and incubated in the dark with DHE (10-50 μM) for 10 minutes at 37° C. Cells are then washed twice with Hank's balanced salt solution (HBSS, Gibco) to remove excess dye. Fluorescence is monitored in a fluorescence microscope (Olympus, Hamburg, Germany).
Alternatively, the generation of ROS is measured by using the fluoroprobe 5-(and-6)-chloromethyl-2′,7′-dichlorodihydrofluorescein diacetate acetyl ester (CM-H2DCFDA, Molecular Probes, Goettingen, Germany) which is converted to fluorescent dichlorofluorescien (DCF; Djordjevic T. et al., 2004, Antioxidants & Redox Signaling, 6: 713-720). To determine DCF fluorescence in a microplate reader (Tecan, Crailsheim, Germany), cells (e.g. HepG2, Hep3B or SNU-398) are grown in 96-well plates to 80% confluency. […] After several washes with HBSS to remove excess dye, fluorescence is monitored by using 480 nm excitation and 540 nm emission wavelength. DCF fluorescence is standardized to the number of viable cells using the Alamar Blue test according to the manufacturer's instructions (Biosource, Nivelles, Belgium). […] The absorbance is then measured at the wavelength of 580 μm.

[8] = test system: DDC- or GF intoxicated mice; assay: Toxic memory effect upon reintoxication with DDC or GF after recovery; type: in vivo, mouse; details: 10 weeks DDC or GF, 4 weeks recovery, reexposure 24 to 72 hours with simultaneous treatment
Excerpt: Mouse livers respond to DDC- or GF intoxication first with ballooning of hepatocytes and formation of a denser keratin IF network. After around 6 weeks of intoxication, ballooned hepatocytes show a reduced density of the keratin IF and early MBs can be observed as fine granules associated with the keratin IF network. Continuation of intoxication leads to the appearance of large MBs typically located in the perinuclear cytoplasmic region. […] Upon cessation of intoxication, MBs disappear within several weeks. At 4 weeks of recovery from intoxication, there are groups of hepatocytes devoid of cytoplasmic keratin filaments but still containing small remnants of MBs at the cell periphery in association with desmosomes. If such mice are reexposed to DDC or GF numerous MBs reappear within 24 to 72 hours (Stumptner C. et al., 2001, J. Hepatol., 34: 665-675). This enhanced formation of MBs upon reintoxication was interpreted—in analogy to allergic reactions—as a toxic memory effect.
In another set of experiments, 10 week-intoxication of mice with DDC or GF is followed by 4 weeks of recovery.

[9] = test system: human epithelial cell cancer xenografts; assay: Nude mice tumor xenografts; type: in vivo, mouse
Experimental: Tumor cell lines or primary tumors that are xenografted subcutaneously according to standard methods (Li K. et al., 2003, Cancer Res., 63(13): 3593-3597) include colon adenocarcinomas, invasive ductal carcinomas of the breast, small and non-small cell lung carcinoma, prostate tumors, pancreatic tumors and stomach tumors.
Tumor-derived cell lines (grown in DMEM/10% FBS) are harvested in log-phase growth, washed twice with PBS, resuspended in 1 ml PBS (2.5×10^7 cells/ml), and injected subcutaneously into the right flank of a nude mouse (Hsd: athymic nu/nu, Harlan Winkelmann; aged between 5 and 6 weeks) at 5×10^6 cells/mouse (0.2 ml). Tumor growth is monitored every other day for the indicated periods (depending on the cell type). Tumor size is determined by the product of two perpendicular diameters and the height above the skin surface.

[10] = test system: choline deficient diet fed rats; details: cited from earlier work

## Cc1c(C)c2c(c(C)c1O)CC[C@@](C)(CCC[C@H](C)CCC[C@H](C)CCCC(C)C)O2 [alpha-tocopherol]
[1]
  liver function, hepatocarcinogenesis, cumulative survival: neither improvement of liver function, suppression of hepatocarcinogenesis, nor improvement of cumulative survival

## CCOC(=O)C1=C(C)NC(C)=C(C(=O)OCC)C1C [DDC]
Hepatoma cell lines
  EC50: 50 μg/ml of medium

## C[P+](c1ccccc1)(c1ccccc1)c1ccccc1 [TPMP, reference compound]
[2]
  safety of feeding: fed safely

## Cc1c(C)c2c(c(C)c1O)CCC(C)(CC[P+](c1ccccc1)(c1ccccc1)c1ccccc1)O2 (stereo not drawn) [MitoVit E, [2-(3,4-dihydro-6-hydroxy-2,5,7,8-tetramethyl-2H-1-benzopyran-2-yl)ethyl]-triphenylphosphonium bromide]
[3]
  maximum tolerated dose: 6 mg/kg/day
[4]
  gross signs of toxicity: without any gross signs of toxicity
[5]
  accumulation by mitochondria: rapidly and selectively accumulated by mitochondria
[6]
  pEC50: 6.38
[7]
  ROS formation: significant reduction in ROS formation
[2]
  concentrations within the brain, heart, liver, and muscle: potentially therapeutically effective concentrations
  safety of feeding: fed safely
[8]
  toxic memory effect (reappearance of MBs): reduced or abolished

## COc1c(O)c(C)c(CCCCCCCCCC[P+](c2ccccc2)(c2ccccc2)c2ccccc2)c(O)c1OC.CS(=O)(=O)[O-] [MitoS]
[4]
  gross signs of toxicity: without any gross signs of toxicity
[7]
  ROS formation: significant reduction in ROS formation
[9]
  growth of tumors: reduced growth of tumors
  necrosis of the tumors: increased necrosis of the tumors
  vascularization of the tumor xenografts: decreased vascularization
[8]
  toxic memory effect (reappearance of MBs): reduced or abolished

## vitamin E
[10]
  development of fatty liver and oxidative stress: neither prevented the development of fatty liver nor reduced the oxidative stress
